Test results taken from patent publication US4264492A, “Enkephalin-like compounds in bovine adrenal medulla” (Hoffmann-La Roche Inc., priority 1979, dated 1981).
Where “and” joins values, the source holds several entries; their conditions need not be identical. Identical values can stand only once.

Experiments:
mice [1] = assay: Analgesic assay, tail flick response after intracerebral ventrical injection; format: in vivo; settings: individual mouse
[2] = tested on: N-terminal directed Met-enkephalin antibody; assay: Radioimmunoassay, N-terminal directed antibody; format: binding; settings: fractions from RP-18; 1.3 g wet weight of chromaffin granules isolated from 30 g of adrenal medulla
Protocol: (§1) Bovine adrenal glands were obtained from a local slaughterhouse and stored on ice until used (2 hrs). The medullas were dissected out and chromaffin granules prepared by the procedure of Smith and Winkler [Biochem. J., 103, & 80 (1967)]. The isolated chromaffin granules or whole adrenal medullas were homogenized (10:1 V/W) in 1 M acetic acid, 20 mM HCl containing 1μg/ml PMSF and pepstatin. The procedures for extraction, Sephadex column elution and trypsin digestion have been described [Lewis, R. V. et al., Proc. Nat'l. Acad. Sci., U.S.A. 75, & 021 (1978)]. The radioreceptor assay employed neuroblastoma x glioma hybrid cells [Gerber, L. D. et al., Brain Res. 1515, 117 (1978)] with ^3 H-Leuenkephalin as the competing ligand. Radioimmunoassays were performed using a C-terminal directed Leu-enkephalin antibody and a N-terminal directed Met-enkephalin antibody. The characteristics of these antibodies have been described previously [Lewis. R. V., et al. Biochem. Biophys. Res. Commun. 89, 822 (1979)] .
(§2) In order to determine whether fractions 6,7, and 16 were indeed separate entities differing chromatographically from the enkephalins, these fractions were lyophilized, redissolved and rechromatographed. Each opioid peptide eluted at its original position. […]

[3] = tested on: C-terminal directed Leu-enkephalin antibody; assay: Radioimmunoassay, C-terminal directed antibody; format: binding; settings: fractions from RP-18; 1.3 g wet weight of chromaffin granules isolated from 30 g of adrenal medulla
Protocol: as §1, §2

mice [4] = settings: intracerebraventricular or intravenous administration to mice; cited from earlier work
rats = settings: intracerebraventricular or intravenous administration to rats; cited from earlier work

Substance	Response (mice [1]; Dose 4.5nm, Volume 5nl)	Tail flick response, Post Injection Time 20 (mice [1]; Dose 4.5nm, Volume 5nl)	Radioimmunoassay N-Terminal [2]	Radioimmunoassay C-Terminal [3]	analgesia (mice [4])	analgesia (rats)	Response (mice [1]; Dose 120 nm, Volume 10nl.)	Tail flick response, Post Injection Time 10 (mice [1]; Dose 120 nm, Volume 10nl.)	Tail flick response, Post Injection Time 2 min. (mice [1]; Dose 120 nm, Volume 10nl.)
Beta-endorphin (YGGFMTSEKSQTPLVTLFKNAIIKNAYKKGE; Beta-endorphin; UniProt P01189 237-267, looked up)	Pos. and Neg.	8							
Leu-enkephalin [Leu-enk (std)]			0.4 nmoles/fraction	1.0 nmoles/fraction	weak and short lined anagesia	weak and short lined anagesia			
methionine enkephalin [Met Enk]			1.0 nmoles/fraction	0.03 nmoles/fraction	weak and short lined anagesia	weak and short lined anagesia	Neg.	6.3 and 5.9 and 5.0	4.0 and 4.7
